In the supplement of paper PMC11451515:

Legend:
Settings in all cases: 48 h
SEM cells [1] = test: cell viability relative to DMSO control; higher = less cytotoxic
Procedure, shortened: (§1)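 NOMO1 or SEM cells were plated at 500 cells/well and P12-Ichikawa cells at 1000 cells/well in 1536-well plates (5 μl), after each leukemia line had been adapted for at least four passages in each medium. Pin dosing delivered library compounds in DMSO at 11 threefold concentrations, 47 μM to 0.79 nM. CellTiter-Glo One luminescence was read after 48 h at 37°C. Viability is reported as a per-plate percentage of DMSO wells, with cell-free wells as background.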

NOMO1 [2] = test: as above
Procedure, shortened: as §1

P12-Ichikawa [3] = test: as above
Procedure, shortened: as §1

SEM cells [4] = test: AUC of viability dose-response curve (% viability x log10 dose units); higher = less sensitive
Procedure, shortened: (§2)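 Medium-adapted leukemia cells in 1536-well plates, at 500 or 1000 cells/well, were incubated for 48 h at 37°C with library compounds in DMSO at 11 threefold doses from 47 μM to 0.79 nM. CellTiter-Glo One luminescence normalised per plate to DMSO and cell-free wells was fitted with a four-parameter log-logistic model over log10 doses. Area under the curve was integrated from this fit by trapezoidal rule, with curves beyond full viability scaled and failed quality-control curves removed.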

NOMO1 [5] = test: as above
Procedure, shortened: as §2

P12-Ichikawa [6] = test: as above
Procedure, shortened: as §2

O=C(O)CCc1ccc(NCc2cccc(Oc3ccccc3)c2)cc1
cell viability [%]
Settings	NOMO1 [2]	P12-Ichikawa [3]	SEM cells [1]
HPLM + 10% dialyzed FBS, 0.000781 µM	97.4	94.5	62.4
HPLM + 10% dialyzed FBS, 0.00234 µM	105	107	93.7
HPLM + 10% dialyzed FBS, 0.00702 µM	134	102	114
HPLM + 10% dialyzed FBS, 0.0211 µM	132	104	103
HPLM + 10% dialyzed FBS, 0.0632 µM	119	105	112
HPLM + 10% dialyzed FBS, 0.19 µM	96.9	111	108
HPLM + 10% dialyzed FBS, 0.569 µM	114	108	98.7
HPLM + 10% dialyzed FBS, 1.71 µM	111	109	122
HPLM + 10% dialyzed FBS, 5.12 µM	122	108	121
HPLM + 10% dialyzed FBS, 15.4 µM	117	119	109
HPLM + 10% dialyzed FBS, 46.1 µM	141	104	123
RPMI 5 mM glucose + 10% FBS, 0.000781 µM	85.8	99.3	74.2
RPMI 5 mM glucose + 10% FBS, 0.00234 µM	99.2	105	106
RPMI 5 mM glucose + 10% FBS, 0.00702 µM	108	111	108
RPMI 5 mM glucose + 10% FBS, 0.0211 µM	102	105	90.6
RPMI 5 mM glucose + 10% FBS, 0.0632 µM	119	118	124
RPMI 5 mM glucose + 10% FBS, 0.19 µM	111	111	105
RPMI 5 mM glucose + 10% FBS, 0.569 µM	105	109	99.3
RPMI 5 mM glucose + 10% FBS, 1.71 µM	102	109	118
RPMI 5 mM glucose + 10% FBS, 5.12 µM	109	110	110
RPMI 5 mM glucose + 10% FBS, 15.4 µM	103	122	120
RPMI 5 mM glucose + 10% FBS, 46.1 µM	123	118	95.2
RPMI 5 mM glucose + 10% dialyzed FBS, 0.000781 µM	82.6	88.6	71.6
RPMI 5 mM glucose + 10% dialyzed FBS, 0.00234 µM	103	96.5	106
RPMI 5 mM glucose + 10% dialyzed FBS, 0.00702 µM	95.1	103	126
RPMI 5 mM glucose + 10% dialyzed FBS, 0.0211 µM	92.5	110	116
RPMI 5 mM glucose + 10% dialyzed FBS, 0.0632 µM	105	103	109
RPMI 5 mM glucose + 10% dialyzed FBS, 0.19 µM	105	104	112
RPMI 5 mM glucose + 10% dialyzed FBS, 0.569 µM	103	103	121
RPMI 5 mM glucose + 10% dialyzed FBS, 1.71 µM	98.6	104	115
RPMI 5 mM glucose + 10% dialyzed FBS, 5.12 µM	111	100	127
RPMI 5 mM glucose + 10% dialyzed FBS, 15.4 µM	119	98.6	131
RPMI 5 mM glucose + 10% dialyzed FBS, 46.1 µM	104	99.9	128

AUC of viability dose-response curve
Settings	NOMO1 [5]	P12-Ichikawa [6]	SEM cells [4]
HPLM + 10% dialyzed FBS	446	464	406
RPMI 5 mM glucose + 10% FBS	441	449	439
RPMI 5 mM glucose + 10% dialyzed FBS	444	471	413

COCCNCCCn1c(C(=O)CF)c(-c2ccc(C)cc2)c2c(N)ncnc21
cell viability [%]
Settings	NOMO1 [2]	P12-Ichikawa [3]	SEM cells [1]
HPLM + 10% dialyzed FBS, 0.000781 µM	94.7	108	109
HPLM + 10% dialyzed FBS, 0.00234 µM	120	95.8	113
HPLM + 10% dialyzed FBS, 0.00702 µM	98.5	104	105
HPLM + 10% dialyzed FBS, 0.0211 µM	88.7	102	101
HPLM + 10% dialyzed FBS, 0.0632 µM	117	111	101
HPLM + 10% dialyzed FBS, 0.19 µM	107	103	105
HPLM + 10% dialyzed FBS, 0.569 µM	108	102	107
HPLM + 10% dialyzed FBS, 1.71 µM	98	95.1	99.7
HPLM + 10% dialyzed FBS, 5.12 µM	105	85.3	87
HPLM + 10% dialyzed FBS, 15.4 µM	105	94.5	71.7
HPLM + 10% dialyzed FBS, 46.1 µM	93.9	87.2	56.4
RPMI 5 mM glucose + 10% FBS, 0.000781 µM	103	118	–
RPMI 5 mM glucose + 10% FBS, 0.00234 µM	88	100	–
RPMI 5 mM glucose + 10% FBS, 0.00702 µM	88.5	108	–
RPMI 5 mM glucose + 10% FBS, 0.0211 µM	93.1	103	–
RPMI 5 mM glucose + 10% FBS, 0.0632 µM	98	107	–
RPMI 5 mM glucose + 10% FBS, 0.19 µM	93.5	104	–
RPMI 5 mM glucose + 10% FBS, 0.569 µM	88.5	101	–
RPMI 5 mM glucose + 10% FBS, 1.71 µM	88.7	103	–
RPMI 5 mM glucose + 10% FBS, 5.12 µM	88.5	104	–
RPMI 5 mM glucose + 10% FBS, 15.4 µM	97.4	96.7	–
RPMI 5 mM glucose + 10% FBS, 46.1 µM	107	91.7	–
RPMI 5 mM glucose + 10% dialyzed FBS, 0.000781 µM	96.8	103	106
RPMI 5 mM glucose + 10% dialyzed FBS, 0.00234 µM	101	96.7	102
RPMI 5 mM glucose + 10% dialyzed FBS, 0.00702 µM	105	116	111
RPMI 5 mM glucose + 10% dialyzed FBS, 0.0211 µM	99.4	98	104
RPMI 5 mM glucose + 10% dialyzed FBS, 0.0632 µM	93.3	106	114
RPMI 5 mM glucose + 10% dialyzed FBS, 0.19 µM	86.9	101	103
RPMI 5 mM glucose + 10% dialyzed FBS, 0.569 µM	99.4	105	96.7
RPMI 5 mM glucose + 10% dialyzed FBS, 1.71 µM	95.6	89.8	68.2
RPMI 5 mM glucose + 10% dialyzed FBS, 5.12 µM	83.7	94.7	72.5
RPMI 5 mM glucose + 10% dialyzed FBS, 15.4 µM	93	83.7	71.9
RPMI 5 mM glucose + 10% dialyzed FBS, 46.1 µM	101	72.2	54.5

AUC of viability dose-response curve
Settings	NOMO1 [5]	P12-Ichikawa [6]	SEM cells [4]
HPLM + 10% dialyzed FBS	470	456	438
RPMI 5 mM glucose + 10% FBS	417	445	367
RPMI 5 mM glucose + 10% dialyzed FBS	453	448	410
